Laboratory results published in US20110088107A1, “COMPOSITIONS AND METHODS FOR DERIVING OR CULTURING PLURIPOTENT CELLS” (priority 2009, published 2011).

Tests used:
[1] = test system: NOD ES cells; test: Blastocyst injection (2N) and chimera generation from NOD ES lines; format: in vivo, mouse; conditions: NOD ES line derived and propagated with the inhibitors; 2N injections
Description: Diploid B6D2F2 blastocysts (94-98 h after hCG injection) were placed in a drop of M2 medium under mineral oil. A flat-tip microinjection pipette with an internal diameter of 16 μm was used for cell injection using a Piezo micromanipulator (Primetech, Japan). About 10 cells were injected into the blastoceol cavity. After injection, the embryos were cultured in KSOM medium and placed in a 37° C. humidified CO2 chamber until transferred to recipient females. Ten to fifteen injected blastocysts were transferred to each uterine horn of 2.5 days post coitum pseudo-pregnant B6D2F1 females. For teratoma generation, 2*106 cells were injected subcutaneously into both flanks of recipient SCID mice, and tumors were harvested for sectioning 3-6 weeks after initial injection. […] were collagenased and manually dissociated into small pieces and injected subcutaneously in to immuno deficient mice.

[2] = test system: NOD-iPS cells; test: Dox-independent propagation of Dox-dependent NOD-iPS cells in supplemented mESM; format: cell-based, mouse (NOD); conditions: mESM lacking Dox
Text: FIGS. 4(A)-4(H) illustrate generation of genetically unmodified germline competent NOD ES cells. (A) Experimental outline for derivation of iPS lines that grow in the presence of small molecules and in the absence of Dox. Representative images of NOD iPS lines growing in mESM supplemented with the indicated small molecules or growth factors. (B) Single-cell cloning efficiency of NOD iPS cells in different growth conditions. WT or NOD-iPS cells grown in mESM and KP were sorted in 96 well plates and cultured in mESM supplemented with small molecules. The number of wells containing Nanog+ colonies was counted after 6 days. Efficiencies were normalized to that of C57B6/129F1-iPS cells (“permissive” controls) plated in mESM and defined as 100%. SD for average efficiencies from 2 experiments are shown. Student test P value compares KP/CH to PD/CH mESM conditions for NOD iPS cells. (C) Expansion of day E3.5 ICM derived NOD ES cells in the presence of KP, KP/CH or PD/CH and derivation of stable ES lines. Images of initial colonies observed at passage 2 after embryo dissociation are shown together with representative images at later passages. (D) Karyotype of NOD ES lines. (E) Immunostaining of NOD ES lines for pluripotency markers. Inhibitors used during cell line derivation and propagation are indicated. (F) Chimerism in adult mice generated from the indicated cell lines is evident by the presence of agouti (brown) and albino coat color originating from the NOD background. […] (G) Real-Time PCR analysis for endogenous expressed Oct4, c-Myc and Klf4 genes in NOD iPS and ES cells grown in the indicated conditions. Relative expression levels are normalized to levels detected in control 129 ES cells. (H) Southern analysis indicating correct targeting of the endogenous Nanog locus in NOD ES cells with Nanog-GFP knock-in targeting construct.
Small molecules have been identified to replace some of the reprogramming factors in iPS derivation (Huangfu et al., 2008; Shi et al., 2008). […]

SMILES: O=C1Cc2c([nH]c3ccc(Br)cc23)-c2ccccc2N1 [Kenpaullone, 9-bromo-7,12-dihydroindolo[3,2-d][1]benzazepin-6(5H)-one]
- % Chimerism (coat color) [1]: 40-90%
- Born chimeras [1]: 17
- Germline Transmission [1]: yes
- Dox-independent growth of pluripotent NOD-iPS cells [2]: supported Dox-independent growth
